Data published in PubChem BioAssay AID1259407 (Chemical Carcinogenesis Research Information System (CCRIS), 2018).
Calls of active or inactive are those of the source. How the calls were made is not given here.

Test system: CCRIS mutagenicity, Ames/micronucleus/aberration tests
Assay: CCRIS mutagenicity studies
[1] = Test System: AMES SALMONELLA TYPHIMURIUM, Strain/Indicator: TA98, Metabolic Activation: NONE, Method: PREINCUBATION
[2] = Test System: AMES SALMONELLA TYPHIMURIUM, Strain/Indicator: TA98, Metabolic Activation: RAT, LIVER, S-9, AROCLOR 1254, Method: PREINCUBATION
[3] = Test System: AMES SALMONELLA TYPHIMURIUM, Strain/Indicator: TA100, Metabolic Activation: NONE, Method: PREINCUBATION
[4] = Test System: AMES SALMONELLA TYPHIMURIUM, Strain/Indicator: TA100, Metabolic Activation: NONE, Method: STANDARD PLATE
[5] = Test System: AMES SALMONELLA TYPHIMURIUM, Strain/Indicator: TA100, Metabolic Activation: RAT, LIVER, S-9, AROCLOR 1254, Method: PREINCUBATION
[6] = Test System: AMES SALMONELLA TYPHIMURIUM, Strain/Indicator: TA1535, Metabolic Activation: NONE, Method: PREINCUBATION
[7] = Test System: AMES SALMONELLA TYPHIMURIUM, Strain/Indicator: TA1537, Metabolic Activation: NONE, Method: PREINCUBATION
[8] = Test System: AMES SALMONELLA TYPHIMURIUM, Strain/Indicator: TA1535, Metabolic Activation: NONE, Method: STANDARD PLATE
[9] = Test System: AMES SALMONELLA TYPHIMURIUM, Strain/Indicator: TA1537, Metabolic Activation: NONE, Method: STANDARD PLATE

## CC1=C2C(=CC(C)(C)[C@@H]2O)C(=O)[C@](C)(O)C12CC2
[1]
  mutagenic call: active; positive

## CC(=O)C(C)=O
[1]
  mutagenic call: inactive; negative
[2]
  mutagenic call: inactive; negative
[3]
  mutagenic call: inactive; negative
[4]
  mutagenic call: active; positive
[5]
  mutagenic call: inactive; negative
Test System: AMES SALMONELLA TYPHIMURIUM, Strain/Indicator: TA100, Metabolic Activation: RAT, LIVER, S-9, PHENOBARBITAL, Method: STANDARD PLATE
  mutagenic call: active; positive
Test System: AMES SALMONELLA TYPHIMURIUM, Strain/Indicator: TA102, Metabolic Activation: NONE, Method: PREINCUBATION
  mutagenic call: active; positive
Test System: AMES SALMONELLA TYPHIMURIUM, Strain/Indicator: TA102, Metabolic Activation: RAT, LIVER, S-9, AROCLOR 1254, Method: PREINCUBATION
  mutagenic call: active; positive
Test System: AMES SALMONELLA TYPHIMURIUM, Strain/Indicator: TA104, Metabolic Activation: NONE, Method: PREINCUBATION
  mutagenic call: active; positive
[6]
  mutagenic call: inactive; negative
[7]
  mutagenic call: inactive; negative
Test System: AMES SALMONELLA TYPHIMURIUM, Strain/Indicator: TA1538, Metabolic Activation: NONE, Method: PREINCUBATION
  mutagenic call: inactive; negative
Test System: E. COLI, Strain/Indicator: WP2 UVRA, Metabolic Activation: NONE, Method: PREINCUBATION
  mutagenic call: inactive; negative

## COc1ccc(CNCC(O)COc2ccc3[nH]c(=O)ccc3c2)cc1OC (stereo unspecified)
Test System: AMES SALMONELLA TYPHIMURIUM, Strain/Indicator: TA98, Metabolic Activation: NONE, Method: STANDARD PLATE
  mutagenic call: inactive; negative
Test System: AMES SALMONELLA TYPHIMURIUM, Strain/Indicator: TA98, Metabolic Activation: RAT, LIVER, S-9, AROCLOR 1254, Method: STANDARD PLATE
  mutagenic call: inactive; negative
[4]
  mutagenic call: inactive; negative
Test System: AMES SALMONELLA TYPHIMURIUM, Strain/Indicator: TA100, Metabolic Activation: RAT, LIVER, S-9, AROCLOR 1254, Method: STANDARD PLATE
  mutagenic call: inactive; negative
[8]
  mutagenic call: inactive; negative
Test System: AMES SALMONELLA TYPHIMURIUM, Strain/Indicator: TA1535, Metabolic Activation: RAT, LIVER, S-9, AROCLOR 1254, Method: STANDARD PLATE
  mutagenic call: inactive; negative
[9]
  mutagenic call: inactive; negative
Test System: AMES SALMONELLA TYPHIMURIUM, Strain/Indicator: TA1537, Metabolic Activation: RAT, LIVER, S-9, AROCLOR 1254, Method: STANDARD PLATE
  mutagenic call: inactive; negative
Test System: AMES SALMONELLA TYPHIMURIUM, Strain/Indicator: TA1538, Metabolic Activation: NONE, Method: STANDARD PLATE
  mutagenic call: inactive; negative
Test System: AMES SALMONELLA TYPHIMURIUM, Strain/Indicator: TA1538, Metabolic Activation: RAT, LIVER, S-9, AROCLOR 1254, Method: STANDARD PLATE
  mutagenic call: inactive; negative
Test System: E. COLI, Strain/Indicator: WP2 UVRA, Metabolic Activation: NONE, Method: STANDARD PLATE
  mutagenic call: inactive; negative
Test System: E. COLI, Strain/Indicator: WP2 UVRA, Metabolic Activation: RAT, LIVER, S-9, AROCLOR 1254, Method: STANDARD PLATE
  mutagenic call: inactive; negative
Test System: MOUSE LYMPHOMA, Strain/Indicator: L5178Y (TK+/TK-), Metabolic Activation: NONE, Method: SUSPENSION/PLATE
  mutagenic call: active; positive

## C(CCC1CO1)CC1CO1 (stereo unspecified)
Test System: AMES SALMONELLA TYPHIMURIUM, Strain/Indicator: TA97A, Metabolic Activation: NONE, Method: STANDARD PLATE
  mutagenic call: active; positive
[4]
  mutagenic call: active; positive
Test System: AMES SALMONELLA TYPHIMURIUM, Strain/Indicator: TA102, Metabolic Activation: NONE, Method: STANDARD PLATE
  mutagenic call: active; positive
Test System: AMES SALMONELLA TYPHIMURIUM, Strain/Indicator: TA102, Metabolic Activation: RAT LIVER S-9, AROCLOR 1254, Method: STANDARD PLATE
  mutagenic call: active; positive
[8]
  mutagenic call: active; positive
[9]
  mutagenic call: inactive; negative

## C=CCOC(=O)CC(C)C
End Point: IN VITRO CHROMOSOMAL ABERRATIONS, Test System: CHO CELLS, Metabolic Activation: NONE
  mutagenic call: inactive; negative
Test System: AMES SALMONELLA TYPHIMURIUM, Strain/Indicator: TA98, Metabolic Activation: HAMSTER, LIVER, S-9, AROCLOR 1254, Method: PREINCUBATION
  mutagenic call: inactive; negative
[1]
  mutagenic call: inactive; negative
[2]
  mutagenic call: inactive; negative
Test System: AMES SALMONELLA TYPHIMURIUM, Strain/Indicator: TA100, Metabolic Activation: HAMSTER, LIVER, S-9, AROCLOR 1254, Method: PREINCUBATION
  mutagenic call: inactive; negative
[3]
  mutagenic call: inactive; negative
[5]
  mutagenic call: inactive; negative
Test System: AMES SALMONELLA TYPHIMURIUM, Strain/Indicator: TA1535, Metabolic Activation: HAMSTER, LIVER, S-9, AROCLOR 1254, Method: PREINCUBATION
  mutagenic call: inactive; negative
[6]
  mutagenic call: inactive; negative
Test System: AMES SALMONELLA TYPHIMURIUM, Strain/Indicator: TA1535, Metabolic Activation: RAT, LIVER, S-9, AROCLOR 1254, Method: PREINCUBATION
  mutagenic call: inactive; negative
Test System: AMES SALMONELLA TYPHIMURIUM, Strain/Indicator: TA1537, Metabolic Activation: HAMSTER, LIVER, S-9, AROCLOR 1254, Method: PREINCUBATION
  mutagenic call: inactive; negative
[7]
  mutagenic call: inactive; negative
Test System: AMES SALMONELLA TYPHIMURIUM, Strain/Indicator: TA1537, Metabolic Activation: RAT, LIVER, S-9, AROCLOR 1254, Method: PREINCUBATION
  mutagenic call: inactive; negative
